Laboratory results: PubChem BioAssay (NCI)
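Grown in 96-well plates, cells were treated for 48 hours with each compound at five concentrations. Insufficient inhibition: endpoint recorded as highest concentration tested. TGI: total growth inhibition.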

Tests used:
[1] = test system: HOP-18 NSCLC; assay: growth of human tumour cells (NCI), 48 h
[2] = test system: M19-MEL melanoma; assay: growth of human tumour cells (NCI), 48 h

Compound | TGI [1] | TGI [2]
OC1CCOc2ccccc21 (centres undefined) | > 100 µM | > 100 µM
CNC(=O)SCC(N)C(=O)O (centres undefined) | > 100 µM | –
CC1CCC2(C(=O)O)CCC3(C)C(=CCC4C5(C)CCC(O)C(C)(C)C5CCC43C)C2C1C (centres undefined) | 34.4 µM | 18.9 µM
C/C=C/C1=CC(=O)C(O)C1O (centres undefined) | 27.1 µM | 113 µM
CC1(C)Cc2c(C#N)c(N)c3c(c2CO1)C(=O)OC3=O | > 100 µM | > 100 µM
